The test deals with P. aeruginosa. The test is described as follows: Antibacterial activity (MIC) against P. aeruginosa. It is filed as cell-based, Pseudomonas aeruginosa. Here is the method:
In this example, the antibacterial activity of exemplary multifunctional copolymeric nanoparticles against Gram-negative and Gram-positive strains, including P. aeruginosa, E. coli, S. aureus, and Enterococcus, were investigated based on their minimum bactericidal concentration (MBC) and minimum inhibitory concentration (MIC). Reaction time for synthesis of exemplary multifunctional copolymeric nanoparticles (AX) was varied from 1 hour to 72 hours to fine-tune the antibacterial activity of the exemplary multifunctional copolymeric nanoparticles. FIG. 11 illustrates a chart 1100 for the antibacterial activity of exemplary multifunctional copolymeric nanoparticles synthesized in different reaction times (1, 3, 8, 24, and 72 hours), consistent with one or more exemplary embodiments of the present disclosure.

This passage reports MIC results from patent publication US20240102051A1, “MULTIFUNCTIONAL COPOLYMERIC NANOPARTICLE” (Iran University of Medical Sciences, priority 2021, published 2024).

A value given as a limit tells only on which side of the number the result lay.

Regarding gentamicin, the MIC is > 64 µg/mL.
